Calls of active or inactive are those of the source. The calls are words filed in the database; no cut-off is given here.
Experiments:
[1] = biological target: E3 ubiquitin-protein ligase XIAP/Bromodomain-containing protein 4 (Homo sapiens) (UniProt P98170+O60885); assay: Protac activity at IAP/BRD4 in human SK-MEL-28 cells assessed as induction of BRD4 degradation at 0.1 to 10 uM measured after 24 hrs by Western blotting analysis; format: cell-based; conditions: dose 0.1-10 µM
[2] = biological target: von Hippel-Lindau disease tumor suppressor/Bromodomain-containing protein 4 (Homo sapiens) (UniProt O60885+P40337); assay: Protac activity at VHL/BRD4 in human MCF7 cells assessed as induction of BRD4 degradation at 10 uM measured after 24 hrs by Western blotting analysis; format: cell-based
von Hippel-Lindau disease tumor suppressor/Bromodomain-containing protein 4 (Homo sapiens), sequence (P40337 whole entry, looked up, other chains not shown): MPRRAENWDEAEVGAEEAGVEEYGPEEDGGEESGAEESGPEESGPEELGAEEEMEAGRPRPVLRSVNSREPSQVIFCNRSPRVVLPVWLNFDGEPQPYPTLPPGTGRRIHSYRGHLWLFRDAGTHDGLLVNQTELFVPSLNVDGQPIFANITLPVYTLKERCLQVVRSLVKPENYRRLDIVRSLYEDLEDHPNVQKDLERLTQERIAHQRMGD

E3 ubiquitin-protein ligase XIAP/Bromodomain-containing protein 4 (Homo sapiens), sequence (P98170 whole entry, looked up, other chains not shown): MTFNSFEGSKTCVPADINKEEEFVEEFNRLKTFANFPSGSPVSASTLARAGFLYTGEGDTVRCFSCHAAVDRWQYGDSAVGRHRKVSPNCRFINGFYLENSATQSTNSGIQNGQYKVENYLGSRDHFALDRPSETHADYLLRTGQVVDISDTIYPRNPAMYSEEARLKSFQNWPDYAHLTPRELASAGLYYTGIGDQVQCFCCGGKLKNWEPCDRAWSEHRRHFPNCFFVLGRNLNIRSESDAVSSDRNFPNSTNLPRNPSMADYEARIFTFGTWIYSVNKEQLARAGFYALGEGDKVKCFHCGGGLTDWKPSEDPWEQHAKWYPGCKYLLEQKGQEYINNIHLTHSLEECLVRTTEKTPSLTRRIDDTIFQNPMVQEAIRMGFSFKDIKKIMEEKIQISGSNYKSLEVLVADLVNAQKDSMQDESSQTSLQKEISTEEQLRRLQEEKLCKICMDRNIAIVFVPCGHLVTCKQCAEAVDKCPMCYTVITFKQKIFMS

Compound | Activity [1] | Activity [2]
CN[C@@H](C)C(=O)N[C@H](C(=O)N1CCC[C@H]1c1nc(C(=O)c2cccc(OCC(=O)NCCOCCOCCOCCNC(=O)C[C@@H]3N=C(c4ccc(Cl)cc4)c4c(sc(C)c4C)-n4c(C)nnc43)c2)cs1)C1CCCCC1 | Active | –
CC1=C(C)C2C(c3ccc(Cl)cc3)=N[C@@H](CC(=O)NCCOCCOCCNC(=O)CCCC(=O)N[C@H](C(=O)N3C[C@H](O)C[C@H]3C(=O)NCc3ccc(-c4scnc4C)cc3)C(C)(C)C)c3nnc(C)n3C2S1 (some centres undefined) | – | inactive
CC1=C(C)C2C(c3ccc(Cl)cc3)=N[C@@H](CC(=O)NCCCNC(=O)CCCC(=O)N[C@H](C(=O)N3C[C@H](O)C[C@H]3C(=O)NCc3ccc(-c4scnc4C)cc3)C(C)(C)C)c3nnc(C)n3C2S1 (some centres undefined) | – | Active
CN[C@@H](C)C(=O)N[C@H](C(=O)N1CCC[C@H]1c1nc(C(=O)c2cccc(OCC(=O)NCCCNC(=O)C[C@@H]3N=C(c4ccc(Cl)cc4)c4c(sc(C)c4C)-n4c(C)nnc43)c2)cs1)C1CCCCC1 | Active | –
